Patent US20100210556A1, “USE OF A PEPTIDE AS A THERAPEUTIC AGENT” (priority 2007, published 2010)
Where no end group is shown, it is not given here. [ ]: non-standard residue; d: D form. βAla = NCCC(=O)O

Experiments:
[1] = tested on: hepatitis B virus (HBV) ayw strain; experiment: HBV assay in HepG2-2.2.15 cells, secreted HBV DNA by TaqMan PCR; format: cell-based; details: 10 micrograms per ml, six days, HBV DNA in supernatant
A549 cells = experiment: Apoptosis prevention assay (C2 ceramide, Annexin-5); format: cell-based; details: human lung cells (A549), 10 micrograms per ml, 30 min pretreatment
Description: Human A549 cells (carcinomic human alveolar basal epithelial cells) were utilized in the experiments employing the Annexin-5 apoptosis assay. […] A549 cells were pretreated for 30 min with test peptides —10 micrograms per ml—followed by the exposure to C2 ceramide. […] C2 ceramide is a synthetic, membrane soluble analog of ceramide.

murine spleen cells = experiment: Th1/Th2 cytokine profiling assay (Ovalbumin-restimulated spleen cells, CBA kit); format: cell-based, Balb/c mice; details: 10 micrograms per ml, Ovalbumin restimulation, 72 hours
Source text: The Balb/c mice (originated in 1923, it is a popular strain and is used in many different research disciplines. Also classified as an inbred from the production of 20 or more successive brother-sister matings, the Balb/c mouse is albino and small in size) were immunized on Days 1, 15, and 29 with Ovalbumin (Ovalbumin is the main protein found in egg white, commonly used to stimulate an immunological reaction in test animals) in PBS (5 micrograms/injection). On day 50, spleens of the mice were harvested (3 weeks after last boost with Ovalbumin). Cells were cultured (2×10^5/well in triplicate) and incubated with culture medium or test peptides —10 micrograms per ml—for 30 min. Thereafter, additional Ovalbumin was added to the cells at 10 micrograms/ml for in vitro restimulation of the cells. 72 hours later, cell supernatants were harvested and assayed using the Becton Dickinson Mouse Th1/Th2 Cytokine CBA Kit. This kit can be used to measure Interleukin-2 (IL-2), Interleukin-4 (IL-4), Interleukin-5 (IL-5), Interferon-γ (IFN-γ), and Tumor Necrosis Factor-α(TNF-α) protein levels in a single sample.

[2] = tested on: Primary Human endothelial cells (HUVEC); experiment: Endothelial cell migration assay; format: cell-based; details: 10 micrograms per ml, 22 hours
Description: Thereafter, designated concentration of testing peptides —10 micrograms per ml—was added in duplicate wells.

HUVEC = experiment: Endothelial tube formation assay; format: cell-based, human; details: 10 micrograms per ml, 20 hours
Source text: Positive control was vehicle only. […] Raw data were expressed as average tubule lenghs in pixels±standard deviation.

HCMV strain AD169 = experiment: HCMV plaque formation assay in MRC-5 cells; details: HCMV AD169, 10 micrograms per ml, 7-10 days
RAW 264.7 cells = experiment: Phagocytosis assay (Fluorescein-labeled Escherichia coli, flow cytometry); details: 10 micrograms per ml, 30 min preincubation, 60 min ingestion
Description: RAW 264.7 (Mouse leukaemic monocyte macrophage cell line) cells were obtained from ATCC and grown in RPMI 1640 medium containing 10% FBS. Cells were incubated in 12×75 mm tubes at 37° C. with test peptides —10 micrograms per ml—for 30 min prior to adding Fluorescein-labeled Escherichia coli bacteria as the agent to be ingested. After the cells were incubated for additional 60 min at 37° C. and allowed to ingest the Fluorescein-labeled Escherichia coli bacteria, cells were fixed with 1% paraformaldehyde. The samples were then analyzed by flow cytometry to determine the amount of phagocytosis as a function of brightness (the greater the phagocytic activity, the more fluorescence in the macrophage population). Data are reported as % positive and the mean fluorescence intensity (MFI) of positively stained cells.

HIV-1IIIB = format: cell-based; details: CEM-SS T-cells, peptides 10 micrograms per ml, 6 days post-infection, MTS

[βAla]-His-OH [Peptide 2]
inhibition of HBV replication as compared to the virus control infection [1]: 29.6% | reduction of ceramide-induced apoptosis (A549 cells): did not reduce | change of the production of IFN-gamma (murine spleen cells): did not significantly change | change of the production of IL-4 (murine spleen cells): did not significantly change | change of the production of IL-5 (murine spleen cells): did not significantly change | change of the production of TNF-alpha (murine spleen cells): did not significantly change | induction of the production of IL-2 (murine spleen cells): 26.5% | inhibition of the migration of human endothelial cells [2]: 8% | inhibition of the tube formation of human endothelial cells (HUVEC): 21% | inhibition of HCMV plaque formation as compared to the virus control experiment (HCMV strain AD169): 4.4% | induction of phagocytosis as compared to the control experiment (RAW 264.7 cells): 48.6%

Cc1cn([C@H]2C[C@H](N=[N+]=[N-])[C@@H](CO)O2)c(=O)[nH]c1=O [AZT]
inhibition of HIV-1 activity (antiviral activity) (HIV-1IIIB): expected levels of antiviral activity

CC(C)(C)NC(=O)[C@@H]1CN(Cc2cccnc2)CCN1C[C@@H](O)C[C@@H](Cc1ccccc1)C(=O)N[C@H]1c2ccccc2C[C@H]1O [indinavir]
inhibition of HIV-1 activity (antiviral activity) (HIV-1IIIB): expected levels of antiviral activity

Ala-Ile-Phe-Ile-Phe-Ile-Arg-Trp-Leu-Leu-Lys-Leu-Gly-His-His-Gly-Arg-Ala-Pro-Pro-OH (AIFIFIRWLLKLGHHGRAPP-OH) [Peptide 1]
inhibition of HBV replication as compared to the virus control infection [1]: 44.6% | reduction of ceramide-induced apoptosis (A549 cells): 28.2% | change of the production of IFN-gamma (murine spleen cells): did not significantly change | change of the production of IL-4 (murine spleen cells): did not significantly change | change of the production of IL-5 (murine spleen cells): did not significantly change | change of the production of TNF-alpha (murine spleen cells): did not significantly change | induction of the production of IL-2 (murine spleen cells): 156% | inhibition of the migration of human endothelial cells [2]: 19% | inhibition of the tube formation of human endothelial cells (HUVEC): 23% | inhibition of HCMV plaque formation as compared to the virus control experiment (HCMV strain AD169): did not inhibit | induction of phagocytosis as compared to the control experiment (RAW 264.7 cells): did not induced phagocytosis
